According to PubChem BioAssay (NCI):
“And” between values parts separate entries of the source, which are not always exact repeats. Equal entries are not always repeated.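 All cell lines were grown in 96-well plates and treated with compound for 48 hours. GI50 is the concentration that inhibits growth by half. Definition used: TGI = concentration required for complete inhibition of growth.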

Assays:
Test in all cases: NCI tumour cell line growth inhibition, 48 h
[1] = test system: PC-3 prostate
[2] = test system: SK-OV-3 ovarian
[3] = test system: RXF 393 renal
[4] = test system: MCF7 breast
[5] = test system: IGROV1 ovarian
[6] = test system: MDA-MB-435
[7] = test system: OVCAR-5 ovarian
[8] = test system: HCT-116 colon
[9] = test system: SK-MEL-28 melanoma
[10] = test system: SK-MEL-5 melanoma

| Compound | GI50 [1] [nM] | TGI [1] [µM] | GI50 [2] [µM] | TGI [2] | GI50 [3] [µM] | TGI [3] | GI50 [4] [µM] | TGI [4] | GI50 [5] [nM] | TGI [5] | GI50 [6] [nM] | TGI [6] [µM] | GI50 [7] [µM] | TGI [7] | GI50 [8] [nM] | TGI [8] | GI50 [9] [nM] | TGI [9] | GI50 [10] [nM] | TGI [10] |
| --- | --- | --- | --- | --- | --- | --- | --- | --- | --- | --- | --- | --- | --- | --- | --- | --- | --- | --- | --- | --- |
| COc1ccc(Cn2cc3c(c2-c2ccccc2)CCc2cnoc2-3)cc1OC | 3080 | > 100 | 1.48 | > 100 µM | 1.68 | > 100 µM | 0.574 | > 100 µM | 1590 | > 100 µM | 244 | 0.864 | 6.2 | > 100 µM | 482 | > 100 µM | 26300 | > 100 µM | 490 | 10.4 µM |
| COc1ccc2c(c1)oc(=O)c1cc(OC)ccc12 | > 100000 | > 100 | > 100 | > 100 µM | > 100 | > 100 µM | > 100 | > 100 µM | > 100000 | > 100 µM | > 100000 | > 100 | > 100 | > 100 µM | > 100000 | > 100 µM | > 100000 | > 100 µM | 65200 | > 100 µM |
| CC(=O)Nc1c(I)c(NC(C)=O)c(I)c(C(=O)O)c1I | > 100000 | > 100 | > 100 | > 100 µM | > 100 | > 100 µM | > 100 | > 100 µM | > 100000 | > 100 µM | > 100000 | > 100 | > 100 | > 100 µM | > 100000 | > 100 µM | > 100000 | > 100 µM | > 100000 | > 100 µM |
| Cc1ccc2c(c1)c(Sc1ccc(C(=O)NO)cc1)c1n2CN(C)CC1 | 1500 | 3.77 | 1.77 | 3.8 µM | 1.74 | 5.86 µM | 2.44 | 11.5 µM | 2230 | 5.46 µM | 1580 | 3.37 | 1.75 | 5.54 µM | 1590 | 3.54 µM | 1580 | 3.63 µM | 2230 | 6.27 µM |
| CC/C(=C(/c1ccc(O)cc1)c1ccc(OCCN)cc1)c1ccccc1 | 2660 | 8.26 | 5.06 | 18 µM | 2.17 | 7.07 µM | < 0.0233 | 3.99 µM | 4620 | 15.5 µM | 1630 | 3.42 | 6.26 | 20.2 µM | 1910 | 4.08 µM | 1750 | 3.38 µM | 1970 | 4.3 µM |
| C[C@]12CC[C@@H]3c4cc(OC(F)F)c(OS(N)(=O)=O)cc4CC[C@H]3[C@@H]1CC[C@@H]2OS(N)(=O)=O | 1410 | 30.6 | 6.14 | 33.2 µM | 4.16 | 16.1 µM | 1.09 | 19.2 µM | 1880 | 28.7 µM | 241 | 3.04 | 4.73 | 26.5 µM | 997 | 13.9 µM | 2940 | 20.3 µM | 1210 | 13.4 µM |
| COc1cc2c(cc1Cc1cccc(Cl)c1F)c(=O)c(C(=O)O)cn2[C@@H](CO)C(C)C | 2590 | 9.21 | 4.64 | 26.3 µM | 4.57 | 16.3 µM | 3.54 | 16.3 µM | 2420 | 5.61 µM | 3840 | 15.2 | 4.28 | 15.4 µM | 2990 | 11.7 µM | 6630 | 21.9 µM | 2850 | 8.88 µM |
| COc1cc(/C(=C2/O[C@@H]([C@H]3COC(C)(C)O3)[C@H]3OC(C)(C)O[C@@H]23)c2ccc3ccccc3c2)cc(OC)c1OC | 5710 | > 100 | 4.37 | > 100 µM | 2.54 | 5.99 µM | 3.59 | 14.4 µM | 3300 | 10.9 µM | 3610 | 17.5 | 14 | > 100 µM | 2510 | 5.7 µM | 2860 | 9.65 µM | 4070 | 15.4 µM |
| CC1=CCCC2C1(C)CCC(C)C2(C)Cc1cc(O)ccc1O (centres undefined) |  | 18.1 |  | 29.9 µM and 39.1 µM | 3.74 | 20.4 µM and 10.9 µM | 7.15 | 21.7 µM and 19.8 µM | 4220 | 16.6 µM and 21.6 µM |  | 27 |  | 28.7 µM and 38.9 µM | 9850 | 24.8 µM and 15.7 µM |  | 29.9 µM and 31.1 µM | 10600 | 27.7 µM and 24.9 µM |
| C=C1C(=O)O[C@H]2[C@H]1CC/C(C=Nc1c(N)cc(C(F)(F)F)cc1C(F)(F)F)=C\CC[C@@]1(C)O[C@@H]21 | 1540 | 4.4 | 3.26 | 11.5 µM | 1.24 | 2.74 µM | 0.498 | 2.34 µM |  |  | 2030 | 6.05 | 1.87 | 4.59 µM | 1060 | 2.52 µM | 1870 | 3.83 µM | 1350 | 2.67 µM |
| COCCNc1ccc2c3c(cccc13)C(=O)N(CCN(C)C)C2=O | 9760 | > 25 | 4.28 | > 25 µM | 5.07 | 16.9 µM | 6.5 | 23.4 µM |  |  | 8150 | > 25 | 9.41 | > 25 µM | 6650 | > 25 µM | 7160 | 23.1 µM | 4760 | 13.1 µM |
| CCCCCCn1c(-c2ccc(C(=O)O/N=C(\N)c3ccc4ccccc4c3)cc2)nc(-c2ccccc2)c1-c1ccccc1 | 7320 | > 100 | 25.9 | > 90.9 µM | 5.28 | 29.7 µM | 4.3 | > 100 µM |  |  | 7420 | > 100 | > 100 | > 100 µM | 4200 | > 100 µM | > 100000 | > 100 µM | > 100000 | > 100 µM |
